Data on five molecules can be found in US6579967B1, “Receptor-selective somatostatin analogs” (The Salk Institute for Biological Studies, priority 1999, dated 2003).

Type in all cases: binding
The target of one test is T1, human SSTR1 (Homo sapiens, UniProt P30872).
T1 construct: expressed in transfected cells; host or cells: CHO-K1 cells and CCL39 cells
As to the kind of experiment: Displacement of 125I-[Leu8,D-Trp22,Tyr25]-somatostatin-28 from cloned SSTR1 (receptor autoradiography on membrane pellets). On the procedure: (§1) Generally, recombinant cells expressing the receptor are washed and homogenized to prepare a crude protein homogenate in a suitable buffer, as known in the art. In a typical assay, an amount of protein from the cell homogenate is placed into a small volume of an appropriate assay buffer at an appropriate pH. Candidate substances, such as potential SRIF agonists and antagonists, are added to the admixture in convenient concentrations, and the interaction between the candidate substance and the receptor polypeptide is monitored.
(§2) Receptor binding assays are performed on cloned SRIF receptors as generally set forth in Raynor et al. supra. Using such assays, one can generate KD values which are indicative of the concentration of a ligand necessary to occupy one-half (50%) of the binding sites on a selected amount of a receptor or the like, or alternatively, competitive assays can generate IC50 values which are indicative of the concentration of a competitive ligand necessary to displace a saturation concentration of a target ligand being measured from 50% of binding sites.
(§3) In vitro Bioassay: The various somatostatin analogs are tested in vitro for their ability to bind to isolated cloned receptors expressed on CHO-K1 cells and CCL39 cells. CHO-K1 cells are grown in Ham's F-12 medium, and CCL39 cells are grown in Dulbecco's modified Eagle's medium/Ham's F-12(1:1) mix, supplemented with 10% fetal bovine serum, 100 U/ml penicillin and 100 μg/ml streptomycin, in humidified air containing 5% CO2 at 37° C.
(§4) Cells are washed twice with and scraped into ice-cold 0.05 M Tris-HCl (pH 7.4), collected by centrifugation, and homogenized using a rotor/stator slash system in the same buffer. After centrifugation at 120 g for 5 min. at 4° C., the supernatant is collected and centrifuged again at 48,000 g for 30 min. at 4° C. The resulting pellet is resuspended in ice-cold Tris buffer, transferred into a microfuge tube, and centrifuged at 20,000 g for 15 min. at 4° C. After withdrawal of the supernatant, the membrane pellet is stored at −80° C.
(§5) Receptor autoradiography is performed on 20 μm thick cryostat sections of the membrane pellets, mounted on microscope slides, and then stored at −20° C. […] […] Unlabeled somatostatin-28 is run in parallel using the same increasing concentrations, as a control. IC50 values are calculated after quantification of the data using a computer-assisted image processing system as known in this art.
(Displacement assays read how much labelled ligand stays bound in the presence of the test substance.)

In test [1] the target is T2, human SSTR5 (Homo sapiens, UniProt P35346).
T2 construct: expressed in transfected cells; host or cells: CHO-K1 cells and CCL39 cells
As to the kind of experiment: Displacement of 125I-[Leu8,D-Trp22,Tyr25]-somatostatin-28 from cloned SSTR5 (receptor autoradiography on membrane pellets). On the procedure: as §1
as §2, with “sites. The peptide des-AA^1,2,4,5,12,13-[D-Agl^8(Me,2-naphthoyl)]SRIF inhibits the binding to SSTR3 of an iodinated SRIF-28 ligand that has strong affinity for all five receptors.” for “sites.”
as §3, §4
Receptor autoradiography is performed on 20 μm thick cryostat sections of the membrane pellets, mounted on microscope slides, and then stored at −20° C. For each of the tested compounds, complete displacement experiments are performed with the universal somatostatin ligand radioligand ^125I-[Leu^8,D-Trp^22,Tyr^25]-somatostatin-28 that binds with strong affinity to all five receptors. […] Unlabeled somatostatin-28 is run in parallel using the same increasing concentrations, as a control. IC50 values are calculated after quantification of the data using a computer-assisted image processing system as known in this art.
(§6) The potencies of certain SRIF analogs to inhibit radioligand binding of ^125I-[Leu^8,D-Trp^22,[…]]SRIF-28 to the various cloned SRIF receptors are shown in the following table wherein the IC50 values are given in nanomolar concentration.

The next test addresses T3, human SSTR2 (Homo sapiens, UniProt P30874).
T3 construct: expressed in transfected cells; host or cells: CHO-K1 cells and CCL39 cells
Nature of the test: Displacement of 125I-[Leu8,D-Trp22,Tyr25]-somatostatin-28 from cloned SSTR2 (receptor autoradiography on membrane pellets). On the procedure: as §1, §2, §3, §4, §5

For test [2], the target named is T4, human SSTR3 (Homo sapiens, UniProt P32745).
T4 construct: expressed in transfected cells; host or cells: CHO-K1 cells and CCL39 cells
As to the kind of experiment: Displacement of 125I-[Leu8,D-Trp22,Tyr25]-somatostatin-28 from cloned SSTR3 (receptor autoradiography on membrane pellets). To be noted: for relative potency at SSTR3 by comparison to SRIF-28: binding affinity relative to SRIF-28 (=1); for binding strength and selectivity for SSTR3, in words: qualitative statement. On the procedure:
as §1
as §2, with “sites. The peptide des-AA^1,2,4,5,12,13-[D-Agl^8(Me,2-naphthoyl)]SRIF inhibits the binding to SSTR3 of an iodinated SRIF-28 ligand that has strong affinity for all five receptors.” for “sites.”
as §3, §4
Receptor autoradiography is performed on 20 μm thick cryostat sections of the membrane pellets, mounted on microscope slides, and then stored at −20° C. For each of the tested compounds, complete displacement experiments are performed with the universal somatostatin ligand radioligand ^125I-[Leu^8,D-Trp^22,Tyr^25]-somatostatin-28 that binds with strong affinity to all five receptors. Increasing concentrations of the unlabeled peptide are used ranging from 0.1-1000 nM. Unlabeled somatostatin-28 is run in parallel using the same increasing concentrations, as a control. IC50 values are calculated after quantification of the data using a computer-assisted image processing system as known in this art.
as §6

The target of a further test is T5, human SSTR4 (Homo sapiens, UniProt P31391).
T5 construct: expressed in transfected cells; host or cells: CHO-K1 cells and CCL39 cells
Nature of the test: Displacement of 125I-[Leu8,D-Trp22,Tyr25]-somatostatin-28 from cloned SSTR4 (receptor autoradiography on membrane pellets). On the procedure:
as §1, §2, §3, §4, §5

Test [3] has as its target T4, human SSTR3. As to the kind of experiment: Displacement of 125I-[Leu8,D-Trp22,Tyr25]-somatostatin-28 from cloned SSTR3 (receptor autoradiography on membrane pellets). To be noted: 125I-labelled Tyr2 analog tested as radioligand on cloned receptor.
Test [4] has as its target T2, human SSTR5. Nature of the test: Displacement of 125I-[Leu8,D-Trp22,Tyr25]-somatostatin-28 from cloned SSTR5 (receptor autoradiography on membrane pellets). To be noted: 125I-labelled Tyr2 analog tested as radioligand on cloned receptor.
The mark [5] stands for this setting: inhibition of 125I-[Leu8,D-Trp22,Tyr24]SRIF-28 binding, cloned receptor, read-out: IC50 (nM) mSSTR1.
Setting [6] is: inhibition of 125I-[Leu8,D-Trp22,Tyr24]SRIF-28 binding, cloned receptor, read-out: IC50 (nM) mSSTR5.
The mark [7] stands for this setting: inhibition of 125I-[Leu8,D-Trp22,Tyr24]SRIF-28 binding, cloned receptor, read-out: IC50 (nM) mSSTR2.
[8] abbreviates: inhibition of 125I-[Leu8,D-Trp22,Tyr24]SRIF-28 binding, cloned receptor, read-out: IC50 (nM) mSSTR3.
Where [9] appears, read: inhibition of 125I-[Leu8,D-Trp22,Tyr24]SRIF-28 binding, cloned receptor, read-out: IC50 (nM) mSSTR4.

“Also recorded” adds a separate entry of the source. Where two headings read alike, the source gives them in different places. Bounds are passed on as bounds.

T5 sequence (P31391 whole entry): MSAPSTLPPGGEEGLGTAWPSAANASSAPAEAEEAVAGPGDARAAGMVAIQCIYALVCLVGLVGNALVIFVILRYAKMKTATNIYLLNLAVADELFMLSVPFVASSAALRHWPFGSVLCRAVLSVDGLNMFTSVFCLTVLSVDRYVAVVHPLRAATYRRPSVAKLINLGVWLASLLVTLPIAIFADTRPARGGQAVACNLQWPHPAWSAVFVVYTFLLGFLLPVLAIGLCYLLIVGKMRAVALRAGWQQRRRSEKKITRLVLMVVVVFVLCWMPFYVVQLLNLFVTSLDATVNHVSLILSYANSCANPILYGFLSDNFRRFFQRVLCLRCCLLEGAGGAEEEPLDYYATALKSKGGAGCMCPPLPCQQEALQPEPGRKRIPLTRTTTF
T1 sequence (P30872 whole entry): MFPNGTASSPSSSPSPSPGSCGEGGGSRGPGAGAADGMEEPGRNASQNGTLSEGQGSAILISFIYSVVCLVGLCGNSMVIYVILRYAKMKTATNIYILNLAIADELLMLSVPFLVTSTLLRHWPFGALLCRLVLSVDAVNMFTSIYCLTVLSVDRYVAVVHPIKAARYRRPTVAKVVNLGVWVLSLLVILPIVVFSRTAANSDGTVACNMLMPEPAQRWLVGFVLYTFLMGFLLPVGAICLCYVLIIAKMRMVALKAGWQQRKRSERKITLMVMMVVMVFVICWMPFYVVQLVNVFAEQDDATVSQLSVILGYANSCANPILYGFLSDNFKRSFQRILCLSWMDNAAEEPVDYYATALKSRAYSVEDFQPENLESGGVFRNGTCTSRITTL
T4 sequence (P32745 whole entry): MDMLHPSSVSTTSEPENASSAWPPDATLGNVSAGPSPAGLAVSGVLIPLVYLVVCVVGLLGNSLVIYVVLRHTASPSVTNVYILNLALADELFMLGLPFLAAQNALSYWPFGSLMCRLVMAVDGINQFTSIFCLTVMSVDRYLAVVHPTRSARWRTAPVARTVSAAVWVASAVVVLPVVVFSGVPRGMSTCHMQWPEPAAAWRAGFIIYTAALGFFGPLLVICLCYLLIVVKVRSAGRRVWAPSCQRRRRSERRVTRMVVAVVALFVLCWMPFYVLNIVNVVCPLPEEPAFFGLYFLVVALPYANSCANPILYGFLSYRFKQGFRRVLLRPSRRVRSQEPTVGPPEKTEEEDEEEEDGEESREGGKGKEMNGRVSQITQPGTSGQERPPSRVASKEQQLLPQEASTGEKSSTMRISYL
T2 sequence (P35346 whole entry): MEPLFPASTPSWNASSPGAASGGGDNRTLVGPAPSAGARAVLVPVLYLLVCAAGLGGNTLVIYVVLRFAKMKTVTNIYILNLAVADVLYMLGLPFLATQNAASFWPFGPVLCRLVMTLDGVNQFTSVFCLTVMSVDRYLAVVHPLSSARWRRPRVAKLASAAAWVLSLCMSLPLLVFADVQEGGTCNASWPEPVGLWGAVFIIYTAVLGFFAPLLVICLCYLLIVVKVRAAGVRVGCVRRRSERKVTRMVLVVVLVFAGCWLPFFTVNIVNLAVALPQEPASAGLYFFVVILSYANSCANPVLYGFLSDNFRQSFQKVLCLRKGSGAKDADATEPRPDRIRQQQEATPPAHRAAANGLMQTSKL
T3 sequence (P30874 whole entry): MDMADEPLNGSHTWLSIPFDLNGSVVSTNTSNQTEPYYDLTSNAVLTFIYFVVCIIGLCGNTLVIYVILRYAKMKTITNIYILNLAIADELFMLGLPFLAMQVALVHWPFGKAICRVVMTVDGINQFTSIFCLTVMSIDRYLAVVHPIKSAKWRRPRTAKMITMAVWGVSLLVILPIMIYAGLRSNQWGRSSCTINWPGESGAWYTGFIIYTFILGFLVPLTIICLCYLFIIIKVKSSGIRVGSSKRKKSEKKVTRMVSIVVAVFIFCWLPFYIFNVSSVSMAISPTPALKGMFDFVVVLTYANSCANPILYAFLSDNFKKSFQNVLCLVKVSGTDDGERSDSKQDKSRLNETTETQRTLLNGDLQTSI

Regarding `C[C@@H](O)[C@@H]1NC(=O)[C@H](CCCCN)NC(=O)[C@@H](N(C)C(=O)c2ccc3ccccc3c2)NC(=O)[C@H](Cc2ccccc2)NC(=O)[C@H](Cc2ccccc2)NC(=O)[C@H](N)CSSC[C@@H](C(=O)O)NC(=O)[C@H](Cc2ccccc2)NC1=O` [Peptide No. 2D, (cyclo 3-14)H-D-Cys-Phe-Phe-D-Agl(Me,2Np)-Lys-Thr-Phe-Cys-OH], the IC50 at human SSTR1 (setting [5]) is greater than 10000 nM; at human SSTR5 [1] (setting [6]), greater than 1000 nM; at human SSTR2 (setting [7]), greater than 10000 nM; on human SSTR3 [2] (setting [8]), 115 ± 36 nM; on human SSTR4 (setting [9]) it was greater than 10000 nM. Besides, the “relative potency at SSTR3 by comparison to SRIF-28” value on human SSTR3 [2] was “about 0.08”. For the same molecule, on human SSTR3 [2] (listed as Peptide 2D), the “binding strength and selectivity for SSTR3, in words” value (shortened to “binding strength and selectivity”) is “bind strongly and selectively to SSTR3; also recorded: slightly less selective”.
With `C[C@@H](O)[C@@H]1NC(=O)[C@H](CCCCN)NC(=O)[C@@H](N(C)C(=O)c2ccc3ccccc3c2)NC(=O)[C@H](Cc2ccc(Cl)cc2)NC(=O)[C@H](Cc2ccccc2)NC(=O)[C@H](N)CSSC[C@@H](C(=O)O)NC(=O)[C@H](Cc2ccccc2)NC1=O` [Peptide No. 2E, (cyclo 3-14)H-D-Cys-Phe-4ClPhe-D-Agl(Me,2Np)-Lys-Thr-Phe-Cys-OH], the IC50 on human SSTR1 (setting [5]) is greater than 1000 nM; on human SSTR5 [1] (setting [6]), greater than 1000 nM; at human SSTR2 (setting [7]), greater than 1000 nM; on human SSTR3 [2] (setting [8]) it was 180 nM; at human SSTR4 (setting [9]), greater than 10000 nM. Further, the “binding strength and selectivity” value at human SSTR3 [2] (listed as Peptide 2E) was “bind strongly and selectively to SSTR3; also recorded: slightly less selective”.
Turning to `C[C@@H](O)[C@@H]1NC(=O)[C@H](CCCCN)NC(=O)[C@@H](N(C)C(=O)c2ccc3ccccc3c2)NC(=O)[C@H](Cc2ccc(O)cc2)NC(=O)[C@H](Cc2ccccc2)NC(=O)[C@H](NC(N)=O)CSSC[C@@H](C(=O)O)NC(=O)[C@H](Cc2ccccc2)NC1=O` [Peptide No. 2F, (cyclo 3-14)Cbm-D-Cys-Phe-Tyr-D-Agl(Me,2Np)-Lys-Thr-Phe-Cys-OH], the IC50 was greater than 10000 nM on human SSTR1 (setting [5]); greater than 10000 nM on human SSTR5 [1] (setting [6]); greater than 10000 nM on human SSTR2 (setting [7]); 6.7 ± 2.6 nM on human SSTR3 [2] (setting [8]); greater than 10000 nM on human SSTR4 (setting [9]). Further, the “relative potency at SSTR3 by comparison to SRIF-28” value at human SSTR3 [2] was “about 1.4”. Besides, the “binding strength and selectivity” value at human SSTR3 [2] (listed as Peptide 2F) is “bind strongly and selectively to SSTR3; also recorded: binding strength essentially equal to that of SRIF-28”.
Take `C[C@@H](O)[C@@H]1NC(=O)[C@H](CCCCN)NC(=O)[C@@H](Cc2ccc3ccccc3c2)NC(=O)[C@H](N(C)C(=O)c2ccccc2)NC(=O)[C@H](Cc2ccccc2)NC(=O)[C@@H](N)CSSC[C@@H](C(=O)O)NC(=O)[C@H](Cc2ccccc2)NC1=O` [Peptide No. 3, (cyclo 3-14)H-Cys-Phe-Agl(Me,Bz)-D-2Nal-Lys-Thr-Phe-Cys-OH]: the IC50 at human SSTR1 (setting [5]) was greater than 10000 nM; at human SSTR1 (iodinated SRIF-28 ligand, cloned human receptor, read-out: concentration below which no binding to human SSTR1), greater than 1000 nM; on human SSTR5 [1] (setting [6]), greater than 1000 nM; at human SSTR5 [1] (iodinated SRIF-28 ligand, cloned human receptor, read-out: concentration below which no binding to human SSTR5) it was greater than 1000 nM; on human SSTR2 (setting [7]) it was greater than 1000 nM; at human SSTR2 (iodinated SRIF-28 ligand, cloned human receptor, read-out: concentration below which no binding to human SSTR2) it was greater than 1000 nM. The IC50 at human SSTR3 [2] (setting [8]) is 80 nM; on human SSTR3 [2] (iodinated SRIF-28 ligand, cloned human receptor, read-out: IC50 at cloned human SSTR3), roughly 80 nM; on human SSTR4 (setting [9]), greater than 1000 nM; on human SSTR4 (iodinated SRIF-28 ligand, cloned human receptor, read-out: concentration below which no binding to human SSTR4) it was greater than 1000 nM. Further, at human SSTR3 [2], the “binding strength and selectivity” value is on record as “bind selectively to SSTR3; also recorded: selectively binds SSTR3”.
With “(cyclo)H-Tyr-Cys-Phe-Phe-D-Agl(Me,2Np)-Lys-Thr-Phe-Cys-OH [Peptide No. 4]”, at human SSTR3 [3], the “binding of the radioiodinated analog to SSTR3” value is recorded as “continues to bind strongly to SSTR3; also recorded: effectively binds to SSTR3 to about the same extent as Peptide No. 2B”. Also, the “binding of the radioiodinated analog to SSTR5” value at human SSTR5 [4] is “No specific binding”.
